IC50 data for two compounds are collected here from US9718803B2 (AMGEN INC., priority 2010, dated 2017).

The assay concerns the target PDE10 enzyme. Description: MPDE10A7 enzyme activity and inhibition (IMAP TR-FRET assay). Type of assay: biochemical. On the technique in general: Time-resolved FRET reads energy transfer from a long-lived donor to a nearby acceptor.

Structures are written as SMILES. Read-outs that look alike come from different tables or passages of the source.

A word on the IC50: it is the concentration at which inhibition is half-maximal.

Method: MPDE10A7 Enzyme Activity and Inhibition
Enzyme Activity. An IMAP TR-FRET assay was used to analyze the enzyme activity (Molecular Devices Corp., Sunnyvale Calif.). 5 L of serial diluted PDE10A (BPS Bioscience, San Diego, Calif.) or tissue homogenate was incubated with equal volumes of diluted fluorescein labeled cAMP or cGMP for 60 min in 384-well polystyrene assay plates (Corning, Corning, N.Y.) at room temperature. After incubation, the reaction was stopped by adding 60 L of diluted binding reagents and was incubated for 3 hours to overnight at room temperature. The plates were read on an Envision (Perkin Elmer, Waltham, Mass.) for time resolved fluorescence resonance energy transfer. The data were analyzed with GraphPad Prism (La Jolla, Calif.).
Enzyme Inhibition. To check the inhibition profile, 5 μL of serial diluted compounds were incubated with 5 μL of diluted PDE10 enzyme (BPS Bioscience, San Diego, Calif.) or tissue homogenate in a 384-well polystyrene assay plate (Corning, Corning, N.Y.) for 30 min at room temperature. […] The reaction was stopped by adding 60 μL of diluted binding reagents and plates were read on an Envision (Perkin Elmer, Waltham, Mass.) for time resolved fluorescence resonance energy transfer. The data were analyzed with GraphPad Prism (La Jolla, Calif.).

As to `N#Cc1ccc(-c2nccnc2C2CN(c3ccc4ccccc4n3)C2)cc1` [Example 5.8, 4-(3-(1-(quinolin-2-yl)azetidin-3-yl)pyrazin-2-yl)benzonitrile], the IC50 (read-out: IC50) was determined as 3 nM.
Consider `O=C(O)c1cccc(-c2nccnc2C2CN(c3ccc4ccccc4n3)C2)c1` [Example 33.1, Lithium 3-(3-(1-(Quinolin-2-Yl)Azetidin-3-Yl)Pyrazin-2-Yl)Benzoate], for which the IC50 (running text of examples, fluorescein labeled cAMP or cGMP substrate, read-out: PDE10 IC50) stood at 1.6 nM.
